{
  "source": "patent US10058587B2",
  "about": "“Peptide composition for cancer treatment by inhibiting TRPV6 calcium channel activity” (priority 2008, dated 2018)",
  "key": {"[1]": {"experiment": "Degradation rate in rat plasma (HPLC)", "type": "in vitro ADME", "procedure": "(§1) Rat plasma was obtained from blood taken from sacrificed rats (Sprague-Dawley) and placed into heparinized glass vials to prevent clotting. Whole blood was centrifuged at 8000×g for 5 minutes to spin down the cells leaving the plasma as supernatant. Human whole blood samples from healthy humans were taken in lithium-heparinized vacuum tubes. The samples were placed into 2.0 mL microcentrifuge tubes and centrifuged at 8000×g for 5 min. The plasma was carefully separated from red blood cells and used immediately.\n(§2) Determination of degradation rate of the C-peptides was done by measuring, with the HPLC protocol, the amount of either SorC13 or SorC27 in dosed plasma samples, after time. Sample tubes (500 uL) containing 2 uL of 2 mM Pefabloc were previously prepared for sample delivery SorC13 (1.0 mg) or SorC27 (2.0 mg) were dissolved in 1.0 mL of fresh plasma (37° C.) and placed in an incubating water bath at 37° C. A sample (100 uL) was taken immediately and quenched in sample tubes containing 2 uL of 2 mM Pefabloc, mixed vigorously and immediately frozen at −80° C. This initial sample represented time zero for the run. At successive time intervals of 5 minutes, 100 uL samples were withdrawn, quenched in Pefabloc, mixed, and frozen at −80° C. until analysis.\n(§3) The rat plasma degradation rate was determined for the plasma from three different rats, while the rate of degradation in human plasma used six separate plasma samples. The data used were the means (±SEM) and were fitted to a simple one-phase exponential decay model to determine the half-life of the two peptides. This also allowed the calculation of a static degradation rate. FIG. 11 is illustrative of the rate at which SorC27 was degraded in human plasma."}, "[2]": {"experiment": "Tissue distribution of Cy5.5-labeled peptides by optical imaging", "type": "in vivo, CD1 mice", "details": "Cy5.5-tagged peptide", "source_text": "SorC13 and SorC27 were labeled with the near-infrared probe, Cy5.5. SorC13 was labeled at lysine-1 and lysine-8 with the infrared fluorescent probe cy5.5 through reaction with Cy5.5 NHS ester-activated process. SorC27 was labeled at the single cysteine thiol with Cy5.5 maleamide-activated reaction. The labeled peptides were purified with a combination of size exclusion chromatography and HPLC. The label, Cy5.5, fluoresces in the infra-red region after excitation with a scanning laser. The low energy laser is able to penetrate the animal to about 1 cm and, thus, by scanning prone and supine positions, the presence of the tagged peptides can be quantified in three dimensions.\nCy5.5-labeled peptides were intravenously injected into CD1 mice (4 for each compound) at 100 ug per animal in 100 uL, and animals were imaged live using an optical imaging system, Optix eXplorer (GE Healthcare Systems) at different time points (30 min, 90 min, 4 h). […] The bio-distribution of the labeled peptides in different organs and tissues were visualized and relatively quantified by optical imaging analysis. This protocol allows for visualization of the location of the labeled peptides and how the location changes over time. […] Nodes that accumulated the labeled peptides are indicated by line 1 (superfacial cervical nodes), line 4 (axillary nodes), line 5 (brachial nodes), line 8 (mesenteric nodes) and line 9 (inguinal nodes). FIGS. 8, 9 and 10 show the amounts of labeled peptides in various organs ex vivo."}, "[3]": {"experiment": "Physiological effects after i.v. injection into CD1 mice (blood pressure, heart rate, neurological/behavioral)", "type": "in vivo", "procedure": "(§4) After in vivo i.v. injection into CD1 mice, SorC13 caused a small spike (approximately 25%) in blood pressure in the first 15 min which disappeared by 1 hour."}, "[4]": {"experiment": "Storage stability of solid and aqueous solution", "type": "physicochemical", "procedure": "Additionally, the peptides have greater shelf-life stability and solution stability due to the presence of fewer sensitive disulfide bonds (soricidin has 3 disulfide bonds). The peptides of the invention optionally have no disulfide bonds. An absence of disulfide bonds provides a very long shelflife during storage under minimal refrigeration or at room temperature as a solid. Additionally when the peptides of the invention with no disulfide bonds are dissolved in water, cleavage of disulfide bonds cannot occur. […] The formation of inter-peptide S—S bonds also results in precipitation of soricidin. The peptides of the invention, such as SorC13 and SorC27, are typically stable in aqueous solution at 8° C. for at least 3 weeks with no change in purity as measured by HPLC.\n“Very stable” in the above table means that there was no observable degradation of the solid peptides over 6 months. As a solution in sterile water, the peptides are typically stable for at least 3 weeks at 8° C. and at −20° C., are expected to be stable more than 1 year."}, "[5]": {"experiment": "Clearance route in iv mice", "details": "i.v."}, "[6]": {"experiment": "Degradation rate in human plasma (HPLC)", "type": "in vitro ADME", "procedure": "as §1, §2, §3"}, "[7]": {"experiment": "Single dose acute intravenous bolus toxicity study with 5-day observation", "type": "in vivo, CD-1 mice", "procedure": "A single dose acute intravenous bolus injection toxicity study followed by a 5-day observation period in CD-1 mice was performed as described below. Three doses of each of SorC13 and SorC27 were used (10, 100 and 500 mg/Kg). Daily cage-side exams for 5 days with hourly exams for the first 4 hrs post injection. As part of the analysis the following assessments were made: body weights prior to dosing and at termination; all animals were necropsied (including preparation of bone marrow smears); organ weights were taken of all animals.\nas §4"}, "human TRPV6b": {"target": "T1, human TRPV6b (Homo sapiens, UniProt Q9H1D0)", "T1 construct": "expressed in transfected cells; host or cells: LnCaP (ATCC CRL-1740), human lymph node prostate cancer cells", "T1 sequence (Q9H1D0 41-765 limits assumed)": "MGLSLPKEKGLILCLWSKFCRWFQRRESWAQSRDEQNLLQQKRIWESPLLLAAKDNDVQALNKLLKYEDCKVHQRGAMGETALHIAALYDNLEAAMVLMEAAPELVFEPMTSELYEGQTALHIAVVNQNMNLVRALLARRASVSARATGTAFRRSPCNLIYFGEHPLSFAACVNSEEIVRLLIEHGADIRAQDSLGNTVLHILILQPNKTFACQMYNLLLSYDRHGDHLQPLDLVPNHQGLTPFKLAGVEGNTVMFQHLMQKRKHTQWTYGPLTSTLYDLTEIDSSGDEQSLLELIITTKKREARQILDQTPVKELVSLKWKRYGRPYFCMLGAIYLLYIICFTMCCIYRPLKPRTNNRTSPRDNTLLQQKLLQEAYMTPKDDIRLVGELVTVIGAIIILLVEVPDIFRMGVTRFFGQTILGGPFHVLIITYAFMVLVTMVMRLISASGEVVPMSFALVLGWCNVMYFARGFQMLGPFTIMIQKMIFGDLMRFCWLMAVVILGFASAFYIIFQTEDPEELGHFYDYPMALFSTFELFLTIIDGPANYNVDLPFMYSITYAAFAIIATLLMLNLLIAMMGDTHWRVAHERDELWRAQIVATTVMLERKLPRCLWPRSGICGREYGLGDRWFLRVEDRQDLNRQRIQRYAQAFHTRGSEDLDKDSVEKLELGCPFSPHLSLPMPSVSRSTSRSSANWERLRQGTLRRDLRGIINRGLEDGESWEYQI", "experiment": "Whole-cell patch clamp of calcium store operated current (ISOC) through TRPV6 in transfected LnCaP cells", "type": "cell-based", "procedure": "An expression vector (pCAGS-IRES-hTRPV6b) (Bodding et al. 2003) containing the nucleotide code for human TRPV6b was transfected into and expressed by human lymph node prostate cancer (LnCaP, ATCC CRL-1740). Patch clamping with whole-cell current acquisition was used to measure the calcium current through this channel. Cells were treated and calcium store operated current (ISOC) was measured with either SorC13 (n=90) or SorC27 (n=30) in a closed-circuit perfusion for 3 min at each of cumulative concentrations of 0 (baseline), 100 nM, 500 nM 1 uM, 30 uM and 100 uM. Washout perfusion was done at 2 mL/min for 3 min. […] Further, both C-peptides are very strong inhibitors of calcium current through the TRPV6 channel with inhibition constants in the 100 nM range."}, "[8]": {"experiment": "Repeated dose toxicity study", "type": "in vivo, NOD/SCID mice", "details": "400 mg/kg, daily i.p. injection for 12 days", "procedure": "In order to investigate repeated dose toxicity, SorC27 at 400 mg/kg formulated in saline was injected (i.p.) into NOD/SCID mice every day for 12 days. The animals were observed cage-side each day and examined at the end of the experimental period."}, "mealworm larvae [9]": {"system": "mealworm larvae", "experiment": "Mealworm larva paralytic bioassay", "type": "in vivo"}, "pI": {"experiment": "pI", "type": "physicochemical", "details": "measured"}, "mealworm larvae [10]": {"system": "mealworm larvae", "experiment": "Mealworm larva paralytic bioassay", "type": "in vivo", "details": "for larvae paralyzed: 20 nmole/100 mg mass", "source_text": "To show this, the mealworm larva paralytic bioassay reported previously (U.S. Pat. No. 7,119,168) was used. Animals from a mealworm colony were arbitrarily selected and placed in groups (treatment and control). The animals were weighed to allow calculation of equivalent doses. The treatment was with either SorC13 or SorC27 dissolved in buffered insect Ringer's solution. The control was injection was an equivalent volume of insect Ringer's (NaCl; 10.40 g; KCl, 0.32 g; CaCl2, 0.48 g; NaHCO3, 0.32 g dissolved in 1 L of Millipore sterile water, pH 7.4). Peptide formulations were: SorC27 solutions, prepared at 1.0 mg/100 uL insect Ringer's (10 ug/uL, […], MW=2957); and SorC13, prepared at 0.5 mg/100 uL (5 ug/uL, […], MW=1566). The doses were 50 ug SorC27 per 100 mg of animal mass and 25 ug SorC13 per 100 mg of animal mass. Peptide solutions and control saline were injected dorsally at the fourth segment from the head, just under the integumen. Animals were gently ‘tail tweaked’ with forceps to trigger the escape reflex reaction and scored on time-to-effect, duration of effect and intensity of effect."}, "[11]": {"details": "single i.v. 10, 100 and 500 mg/kg"}},
  "note": "Like-named read-outs stand apart in the source and are kept apart here. Bridges are numbered along the chain shown (N, C = ends). Where no end group is shown, it is not given here.",
  "data": [
    {"sequence": "KEFLHPSKVDLPR [SorC13, KEFLHPSKVDLPR]", "values": [
      {"measurement": "half-life", "setting": "[1]; Sprague-Dawley, rat, plasma, 37° C.", "value": 58, "unit": "min"},
      {"measurement": "binding to plasma proteins", "setting": "[1]; rat plasma", "value": "doesn't"},
      {"measurement": "solubility", "setting": "Solubility (aqueous); aqueous", "value": "> 200", "unit": "mg/mL"},
      {"measurement": "detectable in tissues after perfusion", "setting": "[2]; 24 hours", "value": "still detectable"},
      {"measurement": "tissue localization", "setting": "[2]; i.v. 100 ug", "value": "localize predominantly in lymph nodes, lung, liver and kidney"},
      {"measurement": "neurological/behavioral changes", "setting": "[3]; i.v., over 72 hours", "value": "no neurological/behavioral changes"},
      {"measurement": "spike in blood pressure in the first 15 min", "setting": "[3]; i.v., disappeared by 1 hour", "value": "approximately 25%"},
      {"measurement": "BP spike @ 15 min", "setting": "[3]; mice @ 5 mg/kg, stabilizes by 1 hr", "value": "15% BP spike, @"},
      {"measurement": "Stability in aqueous solution @ −20° C.", "setting": "[4]", "value": "Very stable"},
      {"measurement": "Stability solid @ Room Temp.", "setting": "[4]", "value": "Very stable"},
      {"measurement": "Stability solid @ −20° C.", "setting": "[4]", "value": "Very stable"},
      {"measurement": "Clearance route in iv mice @ 5 mg/kg", "setting": "[5]", "value": "Rapid via kidney."},
      {"measurement": "binding to plasma proteins", "setting": "[6]; human plasma", "value": "doesn't"},
      {"measurement": "half-life", "setting": "[6]; human, plasma, 37° C.", "value": 56.6, "unit": "min"},
      {"measurement": "Maximum Tolerated Dose in CD-1 mice by single i.v. dose", "setting": "[7]; 10, 100 and 500 mg/kg doses", "value": "No toxic effects"},
      {"measurement": "adverse events over 5-day post-injection observation period", "setting": "[7]; [11]", "value": "no adverse events"},
      {"measurement": "necropsy changes in major organ systems", "setting": "[7]; [11]", "value": "no significant changes in all major organ systems"},
      {"measurement": "IC50", "setting": "human TRPV6b", "value": 100, "unit": "nM"},
      {"measurement": "Kd", "setting": "human TRPV6b", "value": 100, "unit": "nM"},
      {"measurement": "Repeated dose in NOD/SCID mice: body weight", "setting": "[8]", "value": "No loss of body"},
      {"measurement": "Repeated dose in NOD/SCID mice: toxic effects", "setting": "[8]", "value": "controls, no toxic"}
    ]},
    {"sequence": "DCSQDCAACSILARPAELNTETCILECEGKLSSNDTEGGLCKEFLHPSKVDLPR (disulfide 2-23, 6-27, 9-41) [Sor54, soricidin, reference compound]", "values": [
      {"measurement": "binding to plasma proteins", "setting": "[1]; rat plasma", "value": "binds to"},
      {"measurement": "half-life", "setting": "[1]; rat plasma", "value": "> 1800", "unit": "min"},
      {"measurement": "solubility", "setting": "Solubility (aqueous)", "value": "< 20", "unit": "mg/mL"},
      {"measurement": "Physiol. effects in vivo (mealworm larvae); 5 mg/kg", "setting": "mealworm larvae [9]", "value": "Paralytic"},
      {"measurement": "Stability in aqueous solution @ −20° C.", "setting": "[4]", "value": "stable"},
      {"measurement": "Stability solid @ Room Temp.", "setting": "[4]", "value": "unstable"},
      {"measurement": "Stability solid @ −20° C.", "setting": "[4]", "value": "stable"},
      {"measurement": "pI", "setting": "pI", "value": "4.3 (measured)"},
      {"measurement": "larvae paralyzed", "setting": "mealworm larvae [10]; time 0 min", "value": "4/4"},
      {"measurement": "larvae paralyzed", "setting": "mealworm larvae [10]; time 2 min", "value": "4/4"},
      {"measurement": "larvae paralyzed", "setting": "mealworm larvae [10]; time 30 min", "value": "4/4"},
      {"measurement": "paralysis in the mealworm larva model", "setting": "mealworm larvae [10]; molar equivalent doses (20 nanomole/100 mg larva)", "value": "profoundly paralytic"},
      {"measurement": "binding to plasma proteins", "setting": "[6]; human plasma", "value": "binds to"},
      {"measurement": "half-life", "setting": "[6]; human plasma", "value": "> 1800", "unit": "min"}
    ]}
  ]
}
